According to ChEMBL document CHEMBL1152106, “Derivatives of 5-amidine indole as inhibitors of thrombin catalytic activity” (Bioorg Med Chem Lett, 1996):

molecular target: T1, Prothrombin (Homo sapiens, UniProt P00734); experiment: Compound was evaluated for inhibition of human alpha-thrombin catalytic activity.

Compared with `N=C(N)c1ccc2[nH]c(-c3ccccc3)cc2c1`, `N=C(N)c1ccc2[nH]c(-c3ccccc3O)cc2c1` is 2-fold higher in IC50: 19 µM for the first, 38 µM for the second. The first is the more potent here.

Going from `N=C(N)c1ccc2[nH]ccc2c1` to `N=C(N)c1ccc2[nH]c(Cc3ccccc3)cc2c1`, the IC50 falls from 22 µM to 1.4 µM (16-fold). The second is the more potent here.

First: Cc1c(-c2ccccc2)[nH]c2ccc(C(=N)N)cc12
Second: N=C(N)c1ccc2[nH]c(Cc3ccccc3F)cc2c1
The IC50 of the first is 1.8-fold higher: 66 µM for the first, 36 µM for the second. The second is the more potent here.

Going from `NCc1ccc2[nH]c(C(Cc3ccccc3F)c3ccccc3F)cc2c1` (configuration not stated) to `N=C(N)c1ccc2[nH]c(C(Cc3ccccc3F)c3ccccc3F)cc2c1` (configuration not stated), the IC50 falls from 59 µM to 15 µM (3.9-fold).

`N=C(N)c1ccc2[nH]c(Cc3cccc(CCc4ccccc4)c3)cc2c1` and `N=C(N)c1ccc2[nH]c(Cc3cccc(Oc4ccccc4)c3)cc2c1` are within 1.5-fold of each other in IC50: 2.4 µM for the first, 2 µM for the second.

Molecule `N=C(N)c1ccc2[nH]c3c(c2c1)CCCC3` has an IC50 of 20 µM.

molecular target: T1, Prothrombin; experiment: Compound was evaluated for inhibition of human alpha-thrombin catalytic activity

`N=C(N)c1ccc2[nH]c(Cc3ccccc3)cc2c1` showed a Ki of 0.26 µM.
